Results as given in patent publication US20080293727A1, “Novel sulfonamide inhibitors of aspartyl protease” (priority 1992, published 2008).

target: HIV-1 protease (Human immunodeficiency virus type 1 group M subtype B, UniProt P04585); experiment: Inhibition constants against HIV-1 protease (method of Pennington et al.); type: biochemical; conditions: HIV-1 protease; read-out: Ki value
Description: We measured the inhibition constants of the compounds listed in Table VII against HIV-1 protease using the above-cited method of Pennington et al.

First: NC(=O)C[C@H](NC(=O)c1ccc2ccccc2n1)C(=O)N[C@@H](Cc1ccccc1)[C@H](O)CN(Cc1ccccc1)S(=O)(=O)c1ccccc1 [Compound 1]
Second: NC(=O)C[C@H](NC(=O)c1ccc2ccccc2n1)C(=O)N[C@@H](Cc1ccccc1)[C@H](O)CN(Cc1ccccc1)S(=O)(=O)c1cccc(C(=O)O)c1 [Compound 7]
The Ki of the first is 2-fold lower: 4 nM for the first, 8 nM for the second. The first binds more tightly here.

First: Cc1noc(C)c1S(=O)(=O)N(Cc1ccccc1)C[C@@H](O)[C@H](Cc1ccccc1)NC(=O)[C@H](CC(N)=O)NC(=O)c1ccc2ccccc2n1 [Compound 3]
Second: CS(=O)(=O)N(Cc1ccccc1)C[C@@H](O)[C@H](Cc1ccccc1)NC(=O)[C@H](CC(N)=O)NC(=O)c1ccc2ccccc2n1 [Compound 8]
The Ki of the first is 27-fold lower: 32 nM for the first, 850 nM for the second.

Compared with `NC(=O)C[C@H](NC(=O)c1ccc2ccccc2n1)C(=O)N[C@@H](Cc1ccccc1)[C@H](O)CN(Cc1ccccc1)S(=O)(=O)c1cccc(C(F)(F)F)c1` [Compound 4], `NC(=O)C[C@H](NC(=O)c1ccc2ccccc2n1)C(=O)N[C@@H](Cc1ccccc1)[C@H](O)CN(Cc1ccccc1)S(=O)(=O)c1cccc(S(N)(=O)=O)c1` [Compound 10, N-1-(1-(S)-Benzyl-3-(benzyl-(3-sulfamoyl-benzenesulfonyl)-amino)-2-(syn)-hydroxy-propyl)-2-((quinoline-2-carbonyl)-amino)-succinamide] is 4.8-fold lower in Ki: 19 nM for the first, 4 nM for the second.

Going from `CC(=O)Nc1nc(C)c(S(=O)(=O)N(Cc2ccccc2)C[C@@H](O)[C@H](Cc2ccccc2)NC(=O)[C@H](CC(N)=O)NC(=O)c2ccc3ccccc3n2)s1` [Compound 5] to `CC(=O)Nc1nc(C)c(S(=O)(=O)N(CC(C)C)C[C@@H](O)[C@H](Cc2ccccc2)NC(=O)[C@H](CC(N)=O)NC(=O)c2ccc3ccccc3n2)s1` [Compound 18], the Ki falls from 2 nM to under 0.1 nM.

`NC(=O)C[C@H](NC(=O)c1ccc2ccccc2n1)C(=O)N[C@@H](Cc1ccccc1)[C@H](O)CN(Cc1ccccc1)S(=O)(=O)c1ccc(-c2ccon2)s1` [Compound 6, (S)-N-1-(1-Benzyl-3-(benzyl-(5-isoxazol-3-yl-thiophene-2-sulfonyl)-amino)-(1S,2 syn)-1-benzyl-2-hydroxy-propyl)-2-((quinoline-2-carbonyl)-amino)-succinamide] and `NC(=O)C[C@H](NC(=O)c1ccc2ccccc2n1)C(=O)N[C@@H](Cc1ccccc1)[C@H](O)CN(Cc1ccccc1)S(=O)(=O)c1cccc2nonc12` [Compound 9, (S)-N-1-(3-((Benzo(1,2,5)oxadiazole-4-sulfonyl)-benzyl-amino)-(1S,2 syn)-1-benzyl-2-hydroxy-propyl)-2-((quinoline-2-carbonyl)-amino)-succinamide] are within 1.5-fold of each other in Ki: 3 nM for the first, 4 nM for the second.

Going from `CN(C)S(=O)(=O)N(Cc1ccccc1)C[C@@H](O)[C@H](Cc1ccccc1)NC(=O)[C@H](CC(N)=O)NC(=O)c1ccc2ccccc2n1` [Compound 11] to `CC(C)CN(C[C@@H](O)[C@H](Cc1ccccc1)NC(=O)[C@H](CC(N)=O)NC(=O)c1ccc2ccccc2n1)S(=O)(=O)N(C)C` [Compound 21, N-1-((1S-2 syn)-1-Benzyl-2-hydroxy-3-(1-isobutyl-3,3-dimethylsulfonylurea)-propyl)-2-((quinoline-2-carbonyl)-amino)-succinamide], the Ki falls from 34 nM to 0.7 nM (49-fold). The second binds more tightly here.

Compared with `CC(C)CN(C[C@@H](O)[C@H](Cc1ccccc1)NC(=O)[C@H](CC(N)=O)NC(=O)c1ccc2ccccc2n1)S(=O)(=O)c1cc(S(=O)(=O)c2ccccc2)cs1` [Compound 13, (S)-N-1-(3-((4-Benzenesulfonyl-thiophene-2-sulfonyl)-isobutyl-amino)-(1S,2 syn)-1-benzyl-2-hydroxy-propyl)-2-((quinoline-2-carbonyl)-amino)-succinamide], `CC(=O)Nc1cccc(S(=O)(=O)N(CC(C)C)C[C@@H](O)[C@H](Cc2ccccc2)NC(=O)[C@H](CC(N)=O)NC(=O)c2ccc3ccccc3n2)c1` [Compound 19, (S)-N-1-(3-((3-Acetylamino-benzenesulfonyl)-isobutyl-amino)-(1S,2 syn)-1-benzyl-2-hydroxy-propyl)-2-((quinoline-2-carbonyl)-amino)-succinamide] is lower in Ki: 0.2 nM for the first, under 0.1 nM for the second.

Compared with `CC(C)CN(C[C@@H](O)[C@H](Cc1ccccc1)NC(=O)[C@H](CC(N)=O)NC(=O)c1ccc2ccccc2n1)S(=O)(=O)c1ccc(F)cc1` [Compound 14, (S)-N-1-(1-(S)-Benzyl-3-((4-fluoro-benzenesulfonyl)-isobutyl-amino)-2-(syn)-hydroxy-propyl)-2-((quinoline-2-carbonyl)-amino)-succinamide], `CC(=O)Nc1ccc(S(=O)(=O)N(CC(C)C)C[C@@H](O)[C@H](Cc2ccccc2)NC(=O)[C@H](CC(N)=O)NC(=O)c2ccc3ccccc3n2)cc1` [Compound 17, (S)-N-1-(1-(S)-Benzyl-3-((4-acetylamino-benzenesulfonyl)-isobutyl-amino)-2-(syn)-hydroxy-propyl)-2-((quinoline-2-carbonyl)-amino)-succinamide] is lower in Ki: 0.1 nM for the first, under 0.1 nM for the second.

`CC(=O)Nc1ccc(S(=O)(=O)N(CC(C)C)C[C@@H](O)[C@H](Cc2ccccc2)NC(=O)[C@H](CC(N)=O)NC(=O)c2ccc3ccccc3n2)cc1F` [Compound 15, (S)-N-1-(3-((4-Acetylamino-3-fluoro-benzenesulfonyl)-isobutyl-amino)-(1S,2 syn)-1-benzyl-2-hydroxy-propyl)-2-((quinoline-2-carbonyl)-amino)-succinamide] and `CC(=O)Nc1cc(S(=O)(=O)N(CC(C)C)C[C@@H](O)[C@H](Cc2ccccc2)NC(=O)[C@H](CC(N)=O)NC(=O)c2ccc3ccccc3n2)ccc1F` [Compound 16, (S)-N-1-(3-((3-Acetylamino-4-fluoro-benzenesulfonyl)-isobutyl-amino)-(1S,2 syn)-1-benzyl-2-hydroxy-propyl)-2-((quinoline-2-carbonyl)-amino)-succinamide] cannot be ordered by Ki: under 0.1 nM for the first, under 0.1 nM for the second.

Going from `CC(C)CN(C[C@@H](O)[C@H](Cc1ccccc1)NC(=O)[C@H](CC(N)=O)NC(=O)c1ccc2ccccc2n1)S(=O)(=O)c1cccc2nonc12` [Compound 20, (S)-N-1-(3-((Benzo(1,2,5)oxadiazole-4-sulfonyl)-isobutyl-amino)-(1S,2 syn)-1-benzyl-2-hydroxy-propyl)-2-((quinoline-2-carbonyl)-amino)-succinamide] to `CC(C)CN(C[C@@H](O)[C@H](Cc1ccccc1)NC(=O)[C@@H](NC(=O)OCc1cccnc1)C(C)C)S(=O)(=O)c1cccc2nonc12` [Compound 25], the Ki rises from 0.1 nM to 3000 nM (30000-fold). The first binds more tightly here.

First: CC(=O)Nc1ccc(S(=O)(=O)N(CC(C)C)C[C@@H](O)[C@H](Cc2ccccc2)NC(=O)[C@@H](NC(=O)OCc2ccccn2)C(C)C)cc1 [Compound 22]
Second: CC(C)CN(C[C@@H](O)[C@H](Cc1ccccc1)NC(=O)[C@@H](NC(=O)OCc1ccccn1)C(C)C)S(=O)(=O)N(C)C [Compound 24]
The Ki of the first is 32000-fold lower: 1 nM for the first, 32500 nM for the second.

First: C=CCOC(=O)N[C@@H](Cc1ccccc1)[C@H](O)CN(CC(C)C)S(=O)(=O)c1ccc(NC(C)=O)cc1 [Compound 27]
Second: C=CCCOC(=O)N[C@@H](Cc1ccccc1)[C@H](O)CN(CC(C)C)S(=O)(=O)c1ccc(NC(C)=O)cc1 [Compound 36]
The Ki of the first is 2.4-fold lower: 8 nM for the first, 19 nM for the second. The first binds more tightly here.

`CC(=O)Nc1ccc(S(=O)(=O)N(CC(C)C)C[C@@H](O)[C@H](Cc2ccccc2)NC(=O)OCC(C)C)cc1` [Compound 28] and `CC(=O)Nc1ccc(S(=O)(=O)N(CC(C)C)C[C@@H](O)[C@H](Cc2ccccc2)NC(=O)OC(C)C)cc1` [Compound 29] are the same in Ki: 17 nM for the first, 17 nM for the second.

Compared with `CC(=O)Nc1ccc(S(=O)(=O)N(CC(C)C)C[C@@H](O)[C@H](Cc2ccccc2)NC(=O)OCCN2CCCC2=O)cc1` [Compound 30], `COCCOC(=O)N[C@@H](Cc1ccccc1)[C@H](O)CN(CC(C)C)S(=O)(=O)c1ccc(NC(C)=O)cc1` [Compound 34] is 3.6-fold lower in Ki: 61 nM for the first, 17 nM for the second. The second binds more tightly here.

First: CC(C)CN(C[C@@H](O)[C@H](Cc1ccccc1)NC(=O)OC(C)(C)C)S(=O)(=O)c1ccc(F)cc1 [Compound 32]
Second: CC(=O)Nc1ccc(S(=O)(=O)N(CC(C)C)C[C@@H](O)[C@H](Cc2ccccc2)NC(=O)OC(C)(C)C)cc1 [Compound 39]
The Ki of the first is 6.8-fold lower: 2.5 nM for the first, 17 nM for the second.

Compared with `CC(=O)Nc1ccc(S(=O)(=O)N(CC(C)C)C[C@@H](O)[C@H](Cc2ccccc2)NC(=O)NCc2ccccc2)cc1` [Compound 33], `CC(=O)Nc1ccc(S(=O)(=O)N(CC(C)C)C[C@@H](O)[C@H](Cc2ccccc2)NC(=O)OCc2cccnc2)cc1` [Compound 44, N-(4-(((2 syn,3S)-2-Hydroxy-4-phenyl-3-(pyridin-3-yl-methoxycarbonylamino)-butyl)-isobutyl-sulfamoyl)-phenyl)-acetamide] is 16-fold lower in Ki: 80 nM for the first, 5 nM for the second. The second binds more tightly here.

First: CC(C)CN(C[C@@H](O)[C@H](Cc1ccccc1)NC(=O)O[C@H]1CCOC1)S(=O)(=O)c1ccc(F)cc1 [Compound 35, 4-Fluoro-N-((2 syn,3S)-2-hydroxy-4-phenyl-3-((S)-tetrahydrofuran-3-yloxycarbonylamino)-butyl)-N-isobutyl-benzenesulfonamide]
Second: CC(C)CN(C[C@@H](O)[C@H](Cc1ccccc1)NC(=O)O[C@H]1CCOC1)S(=O)(=O)c1ccc(Cl)c(Cl)c1 [Compound 37, 3,4-Dichloro-N-((2 syn,3S)-2-hydroxy-4-phenyl-3-((S)-tetrahydrofuran-3-yloxycarbonylamino)-butyl)-N-isobutyl-benzenesulfonamide]
The Ki of the first is 40-fold higher: 4 nM for the first, 0.1 nM for the second.

Going from `CC(C)CN(C[C@@H](O)[C@H](Cc1ccccc1)NC(=O)OCc1ccccc1)S(=O)(=O)c1ccc(F)cc1` [Compound 38] to `CC(C)CN(C[C@@H](O)[C@H](Cc1ccccc1)NC(=O)OC(C)(C)C)S(=O)(=O)c1ccccc1` [Compound 45], the Ki rises from 1.5 nM to 6 nM (4-fold).

Going from `CC(=O)Nc1ccc(S(=O)(=O)N(CC(C)C)C[C@@H](O)[C@H](Cc2ccccc2)NC(=O)[C@@H]2CC(=O)NC(=O)N2)cc1` [Compound 40] to `CC(=O)Nc1ccc(S(=O)(=O)N(CC(C)C)C[C@@H](O)[C@H](Cc2ccccc2)NC(=O)[C@@H]2CCC(=O)N2)cc1` [Compound 43], the Ki rises from 1100 nM to 4200 nM (3.8-fold). The first binds more tightly here.

Going from `CC(=O)Nc1ccc(S(=O)(=O)N(CC(C)C)C[C@@H](O)[C@H](Cc2ccccc2)NC(=O)C(=O)NC(C)(C)C)cc1` [Compound 41] to `CC(=O)Nc1ccc(S(=O)(=O)N(CC(C)C)C[C@@H](O)[C@H](Cc2ccccc2)NC(=O)CCC(N)=O)cc1` [Compound 42], the Ki falls from 220 nM to 46 nM (4.8-fold).
